Literature values, collected in article PMC4284722, “Intrinsic Tryptophan Fluorescence in the Detection and Analysis of Proteins: A Focus on Förster Resonance Energy Transfer Techniques” (International Journal of Molecular Sciences, 2014).

Test system: serum albumin
Design: method as in PMID 2313585, PMID 19683079
Conditions: nonspecific ligand of serum albumin

Compound: O=S(=O)(O)c1cccc2cccc(Nc3ccccc3)c12 [ANS, 1-anilinonaphthalene-8-sulfonate]
- affinity: moderate affinity
